Measurements from patent US8143447B2, “Treatment of cancer” (BiPar Sciences, Inc., priority 2006, dated 2012).
Entries after “also recorded” stand apart in the source; their conditions may differ.

Tests used:
[1] = BA metabolite identification by LC/MS/MS from canine plasma; type: in vivo, dog; details: canine plasma after BA administration; equivalents measured using BSI-201 in the 1 μg/ml spike sample as reference standard
Protocol: (§1) Plasma samples were obtained from dog, rat and mouse studies, in which animals were administered 4-iodo-3-nitrobenzamide (BA). Plasma and tumor samples were prepared for HPLC injection by precipitating plasma (50 μl) with 3× volumes (150 μl) of acetonitrile. Tissue samples were prepared for HPLC injection by adding 1 μl of acetonitrile per mg of tissue, then homogenizing with an electric homogenizer. Following centrifugation, 150 μl of each supernatant was evaporated to dryness, reconstituted in 50 μl of 0.2% formic acid in water and analyzed by chromatography and mass spectrometry techniques (LC/MS/MS conditions). LC/MS/MS conditions are: HPLC (Shimadzu VP System); Mobile Phase: 0.2% formic acid in water (A) and 0.18% formic acid in methanol (B); Column: 1×50 mm Thermo BetaBasic C18 column; Injection volume: 25 μL; Gradient: 0-60% B in 30 minutes; Flow Rate: 100 μL/min; Mass Spectrometer: Applied Biosystems/MDS SCIEX Q-STAR; Interface: IonSpray split at 1/10; Parent Ion Scan: TOF Positive from 200-900 amu; Product Ion Scan: TOF Product Ion from 60-900 amu of most intense Ion in Parent Ion Scan; TOF calibration: Externally calibrated using Renin Substrate. Results of metabolite identification from dog and mouse plasma are depicted in Tables 1-3, as follows: […]

KB 3-1 cells = test: Colony-forming assay, KB 3-1 cells; type: cell-based, human; details: KB 3-1 (MDR1 normal) cells, 0-100 μM, 14 days
Source text: (§2) KB-V1 is a vinblastine resistant clone of KB-3-1 human carcinoma cell line (Fojo, A. T., J Whang-Peng, M. M. Gottesman, and I. Pastan. 1985. Amplification of DNA sequences in human multidrugresistant KB carcinoma cells. Proc. Natl. Acad. Sci. USA 82:7661-7665., Shen, D.-W., C. Cardarelli, J lwang, M. Cornwell, N. Richert, S. Ishii, I. Pastan, and M. M. Gottesman. 1986. Multiple drug-resistant human KB carcinoma cells independently selected for high-level resistance to colchicine, Adriamycin, or vinblastine show changes in expression of specific proteins. J. Biol. Chem. 261:7762-7770). Cells were propagated in Eagle minimal essential medium with 10% fetal bovine serum.
(§3) Cells were trypsinized, counted, and diluted to a final concentration of 10^6 cells/ml. Colony-forming assays were performed by plating an appropriate number of cells into culture dishes in triplicates and treated with 0-100 μM of a compound. After 14 days, cells were fixed and stained with 1% crystal violet, and colonies were counted.

[2] = BA metabolite identification by LC/MS/MS from canine plasma and red blood cells; type: in vivo, dog; details: equivalents by 270 nm UV peak area of BSI-201 in the 5 μg/ml spike sample
Protocol: as §1

HTC116 cells = test: Cell-cycle analysis (DNA content, flow cytometry); type: cell-based; details: treated for 19 hours
Protocol: HCT116 and Hela cells were obtained from ATCC. For DNA content analysis, 2×10^5 cells were washed twice with PBS and fixed in 70% ethanol. Cells were treated with 100 units/mL RNase A for 20 minutes at 37° C., resuspended in cold PBS containing Alexa Fluor® 405 fluorescent stain (Invitrogen) according to the manufacturer's protocol. Cells were analyzed by flow cytometry. FIG. 1 illustrates (FACS dot plots and histograms) cell-cycle analysis in HTC116 cells treated with PARP-1 inhibitor (4-iodo-3-nitrobenzamide or “BA”) for 19 hours.

[3] = BA metabolite identification by LC/MS/MS from murine plasma; type: in vivo, mouse; details: murine plasma after BA administration; equivalents measured using BSI-201 in the 1 μg/ml spike sample as reference standard
Protocol: as §1

KB V-1 cells = test: Colony-forming assay, KB V-1 cells (MDR1 overexpressing); type: cell-based, human; details: KB V-1 (MDR1 overexpressing, vinblastine resistant) cells, 0-100 μM, 14 days
Source text: as §2, §3

adult tumor cell lines = details: a number of adult tumor cell lines; cited from earlier work
[4] = system: established adult tumor lines s.c. implanted in nude mice; details: administered p.o.; cited from earlier work

Structure (SMILES) | Approximate [1] | number of cell colonies / cell death (KB 3-1 cells) | Approximate μg/ml Plasma ([2]; canine plasma) | Approximate μg/ml RBC ([2]; canine red blood cells) | S phase cell cycle (HTC116 cells; compared to control) | number of cells in the G1 phase (HTC116 cells; control 18.6%) | Approximate [3] | number of cell colonies / cell death (KB V-1 cells) | IC50 of tumor cell growth inhibition (adult tumor cell lines) | growth of established adult tumor lines [4] | toxicities [4]
NC(=O)c1ccc(I)c([N+](=O)[O-])c1 [BA, 4-iodo-3-nitrobenzamide] | ~1.9 ng/mL | dose-dependent cell death; also recorded: reduces the number of cell colonies in a dose-dependant manner | ~2.1 µg/mL | ~1.6 µg/mL | decrease | 48.6% | ~3.7 ng/mL | dose-dependent cell death; also recorded: reduces the number of cell colonies in a dose-dependant manner |  |  | 
NC(=O)c1ccc(I)c(O)c1 [M4 (263 m/z)] | ~12 ng/mL |  |  |  |  |  | ~56 ng/mL |  |  |  | 
Nc1ccccc1NC(=O)c1ccc(CNC(=O)OCc2cccnc2)cc1 [MS-27-275] |  |  |  |  |  |  |  |  | submicromolar range | inhibited the growth | minimal toxicities
